Results published in ChEMBL document CHEMBL2021851, “Synthesis and SAR studies of imidazo-[1,2-a]-pyrazine Aurora kinase inhibitors with improved off-target kinase selectivity” (Bioorg Med Chem Lett, 2012).

Key:
[1] = target: Vascular endothelial growth factor receptor 2 (Homo sapiens, UniProt P35968); assay: Inhibition of VEGFR2
[2] = target: T1, Interleukin-1 receptor-associated kinase 4 (Homo sapiens, UniProt Q9NWZ3); assay: Inhibition of IRAK4
T1 sequence (Q9NWZ3 whole entry): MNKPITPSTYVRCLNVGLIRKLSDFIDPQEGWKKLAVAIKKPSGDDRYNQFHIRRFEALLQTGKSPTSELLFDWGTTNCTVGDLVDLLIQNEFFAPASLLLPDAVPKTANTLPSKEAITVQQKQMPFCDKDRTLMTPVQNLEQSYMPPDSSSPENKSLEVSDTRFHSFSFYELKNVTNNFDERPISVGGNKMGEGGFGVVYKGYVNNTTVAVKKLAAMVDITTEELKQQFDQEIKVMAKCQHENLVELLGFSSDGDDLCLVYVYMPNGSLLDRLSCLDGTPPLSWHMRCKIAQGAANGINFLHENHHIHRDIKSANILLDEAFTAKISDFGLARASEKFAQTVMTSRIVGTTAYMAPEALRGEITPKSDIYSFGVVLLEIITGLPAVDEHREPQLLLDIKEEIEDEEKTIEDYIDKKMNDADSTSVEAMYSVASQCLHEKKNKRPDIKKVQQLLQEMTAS

[3] = target: T2, Aurora kinase B (Homo sapiens, UniProt Q96GD4); assay: Inhibition of aurora B kinase using 5TAMRA-GRTGRRNSICOOH as substrate by fluorescent assay
T2 sequence (Q96GD4 whole entry): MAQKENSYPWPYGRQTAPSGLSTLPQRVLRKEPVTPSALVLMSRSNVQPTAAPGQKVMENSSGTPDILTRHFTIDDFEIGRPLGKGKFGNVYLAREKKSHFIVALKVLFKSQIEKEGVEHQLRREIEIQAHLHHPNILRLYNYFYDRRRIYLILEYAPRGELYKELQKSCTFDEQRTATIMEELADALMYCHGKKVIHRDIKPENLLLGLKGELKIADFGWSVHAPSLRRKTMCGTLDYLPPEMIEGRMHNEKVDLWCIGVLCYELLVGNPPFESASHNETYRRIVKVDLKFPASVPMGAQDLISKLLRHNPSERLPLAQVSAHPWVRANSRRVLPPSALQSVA

[4] = target: T2, Aurora kinase B; assay: Inhibition of aurora B kinase in human HCT116 cells assessed as inhibition of histone H3 phosphorylation incubated for 1 hr by Hoechst 33342 staining based microscopic analysis; assay type: cell-based, HCT-116
[5] = target: Tyrosine-protein kinase Lck (Homo sapiens, UniProt P06239); assay: Inhibition of LCK
Tyrosine-protein kinase Lck, sequence (P06239 whole entry): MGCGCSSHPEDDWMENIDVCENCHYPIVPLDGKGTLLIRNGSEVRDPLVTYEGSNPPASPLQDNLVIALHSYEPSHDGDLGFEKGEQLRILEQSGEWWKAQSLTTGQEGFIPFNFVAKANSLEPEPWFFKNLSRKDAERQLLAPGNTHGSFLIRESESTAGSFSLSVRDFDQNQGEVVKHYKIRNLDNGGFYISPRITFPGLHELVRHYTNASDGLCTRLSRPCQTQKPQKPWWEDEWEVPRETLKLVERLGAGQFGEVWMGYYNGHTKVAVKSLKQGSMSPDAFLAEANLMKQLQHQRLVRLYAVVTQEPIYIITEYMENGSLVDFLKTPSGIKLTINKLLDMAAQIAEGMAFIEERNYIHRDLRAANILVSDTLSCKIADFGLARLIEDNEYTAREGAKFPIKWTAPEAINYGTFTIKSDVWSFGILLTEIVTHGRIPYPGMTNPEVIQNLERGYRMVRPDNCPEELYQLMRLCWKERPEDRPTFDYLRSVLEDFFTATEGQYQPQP

[6] = target: T3, Serine/threonine-protein kinase Chk1 (Homo sapiens, UniProt O14757); assay: Inhibition of Chk1
T3 sequence (O14757 whole entry): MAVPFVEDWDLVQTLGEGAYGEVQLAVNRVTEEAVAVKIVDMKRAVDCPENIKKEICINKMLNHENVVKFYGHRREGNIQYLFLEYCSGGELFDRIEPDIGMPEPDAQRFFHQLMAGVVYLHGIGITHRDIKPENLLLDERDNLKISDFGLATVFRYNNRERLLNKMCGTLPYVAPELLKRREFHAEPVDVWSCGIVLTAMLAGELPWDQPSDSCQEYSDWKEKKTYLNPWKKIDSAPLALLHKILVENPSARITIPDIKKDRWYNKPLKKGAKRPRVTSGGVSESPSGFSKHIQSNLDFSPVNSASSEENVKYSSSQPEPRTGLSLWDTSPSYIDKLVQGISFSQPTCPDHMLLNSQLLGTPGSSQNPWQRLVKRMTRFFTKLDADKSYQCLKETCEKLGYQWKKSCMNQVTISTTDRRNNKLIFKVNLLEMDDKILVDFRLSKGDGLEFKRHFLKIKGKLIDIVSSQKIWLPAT

[7] = target: Ribosomal protein S6 kinase alpha-3 (Homo sapiens, UniProt P51812); assay: Inhibition of RSK2
Ribosomal protein S6 kinase alpha-3, sequence (P51812 whole entry): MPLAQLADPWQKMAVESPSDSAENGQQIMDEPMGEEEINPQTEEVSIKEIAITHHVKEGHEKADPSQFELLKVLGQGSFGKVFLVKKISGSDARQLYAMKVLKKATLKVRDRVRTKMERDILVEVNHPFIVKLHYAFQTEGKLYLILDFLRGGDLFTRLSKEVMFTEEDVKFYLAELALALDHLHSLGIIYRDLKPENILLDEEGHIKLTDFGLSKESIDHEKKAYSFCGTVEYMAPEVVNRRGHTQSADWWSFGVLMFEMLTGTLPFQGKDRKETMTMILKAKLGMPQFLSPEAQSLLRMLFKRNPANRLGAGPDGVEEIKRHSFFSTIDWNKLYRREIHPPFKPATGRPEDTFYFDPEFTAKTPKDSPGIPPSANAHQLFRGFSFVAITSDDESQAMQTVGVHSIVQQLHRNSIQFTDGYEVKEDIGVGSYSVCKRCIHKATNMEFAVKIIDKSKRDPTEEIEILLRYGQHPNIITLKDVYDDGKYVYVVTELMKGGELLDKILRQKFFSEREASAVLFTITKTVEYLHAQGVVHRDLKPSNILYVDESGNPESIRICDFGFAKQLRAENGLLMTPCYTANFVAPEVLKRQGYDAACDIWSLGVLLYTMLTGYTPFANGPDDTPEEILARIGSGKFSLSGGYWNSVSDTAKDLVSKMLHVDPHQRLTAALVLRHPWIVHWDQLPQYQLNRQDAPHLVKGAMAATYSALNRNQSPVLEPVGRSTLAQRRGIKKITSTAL

[8] = target: T4, Aurora kinase A (Homo sapiens, UniProt O14965); assay: Inhibition of aurora A kinase using 5TAMRA-GRTGRRNSICOOH as substrate by fluorescent assay
T4 sequence (O14965 whole entry): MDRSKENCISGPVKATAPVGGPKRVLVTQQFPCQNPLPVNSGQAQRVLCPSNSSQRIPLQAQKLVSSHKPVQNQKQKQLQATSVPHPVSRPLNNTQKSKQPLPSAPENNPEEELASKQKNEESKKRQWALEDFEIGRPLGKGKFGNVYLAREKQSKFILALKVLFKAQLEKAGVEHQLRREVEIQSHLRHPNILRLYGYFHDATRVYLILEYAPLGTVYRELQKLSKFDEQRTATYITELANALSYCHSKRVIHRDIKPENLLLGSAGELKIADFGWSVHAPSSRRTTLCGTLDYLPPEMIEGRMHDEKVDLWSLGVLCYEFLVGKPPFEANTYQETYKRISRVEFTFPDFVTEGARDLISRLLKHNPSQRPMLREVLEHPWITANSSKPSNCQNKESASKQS

Vascular endothelial growth factor receptor 2, sequence (P35968 whole entry): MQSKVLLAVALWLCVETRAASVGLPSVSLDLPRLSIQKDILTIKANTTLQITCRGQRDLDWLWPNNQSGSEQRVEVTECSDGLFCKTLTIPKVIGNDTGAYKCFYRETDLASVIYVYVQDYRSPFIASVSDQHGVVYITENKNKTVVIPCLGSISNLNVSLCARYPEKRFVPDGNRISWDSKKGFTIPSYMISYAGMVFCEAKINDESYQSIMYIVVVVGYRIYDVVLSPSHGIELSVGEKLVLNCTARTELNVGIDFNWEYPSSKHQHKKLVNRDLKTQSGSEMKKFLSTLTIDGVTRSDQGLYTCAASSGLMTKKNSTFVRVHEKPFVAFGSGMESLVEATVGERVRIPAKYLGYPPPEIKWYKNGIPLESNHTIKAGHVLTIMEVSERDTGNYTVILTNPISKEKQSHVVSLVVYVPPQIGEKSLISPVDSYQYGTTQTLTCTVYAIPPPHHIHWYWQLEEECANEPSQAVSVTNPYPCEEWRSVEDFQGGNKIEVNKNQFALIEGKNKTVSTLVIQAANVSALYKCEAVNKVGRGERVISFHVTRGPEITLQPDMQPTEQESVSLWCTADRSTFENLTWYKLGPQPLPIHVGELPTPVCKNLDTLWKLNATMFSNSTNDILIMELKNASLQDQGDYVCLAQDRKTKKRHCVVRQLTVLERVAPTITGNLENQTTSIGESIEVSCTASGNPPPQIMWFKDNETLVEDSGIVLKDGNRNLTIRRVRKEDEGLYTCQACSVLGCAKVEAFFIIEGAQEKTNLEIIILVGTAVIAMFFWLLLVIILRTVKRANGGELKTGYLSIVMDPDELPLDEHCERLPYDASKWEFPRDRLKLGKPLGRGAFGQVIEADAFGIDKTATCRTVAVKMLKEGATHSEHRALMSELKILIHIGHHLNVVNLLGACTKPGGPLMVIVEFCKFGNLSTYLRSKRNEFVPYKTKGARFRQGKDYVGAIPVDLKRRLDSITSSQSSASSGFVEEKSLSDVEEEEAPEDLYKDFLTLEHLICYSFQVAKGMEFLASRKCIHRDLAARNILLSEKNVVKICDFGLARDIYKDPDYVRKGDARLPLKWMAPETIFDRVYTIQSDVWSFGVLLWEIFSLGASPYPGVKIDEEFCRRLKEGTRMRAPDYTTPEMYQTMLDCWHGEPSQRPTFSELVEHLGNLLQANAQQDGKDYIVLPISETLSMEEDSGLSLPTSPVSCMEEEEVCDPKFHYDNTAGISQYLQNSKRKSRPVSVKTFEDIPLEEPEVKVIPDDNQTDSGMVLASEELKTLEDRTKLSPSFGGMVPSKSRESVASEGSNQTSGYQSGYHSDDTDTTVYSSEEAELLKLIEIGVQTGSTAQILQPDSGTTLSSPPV

| IC50 [1] | IC50 [2] | IC50 [3] | EC50 [4] | IC50 [5] | IC50 [6] | IC50 [7] | IC50 [8] | Compound |
| --- | --- | --- | --- | --- | --- | --- | --- | --- |
| 0.004 µM | 0.056 µM | ≤ 0.013 µM | 0.05 µM | 0.012 µM | 0.02 µM | 0.36 µM | ≤ 0.004 µM | Cc1cn2c(-c3cn[nH]c3)cnc2c(Nc2cc(CN3CCCCC3)ns2)n1 |
| 0.481 µM | 1.42 µM | ≤ 0.013 µM | 0.058 µM | > 3 µM | 0.02 µM | 4.3 µM | 0.122 µM | Cc1cn2c(-c3cnn(CC(=O)Nc4cccc(F)c4F)c3)cnc2c(Nc2cc(CN3CCCCC3)ns2)n1 |
